From US20120165306A1, “PYRAZINYLPYRIDINES USEFUL FOR THE TREATMENT OF PROLIFERATIVE DISEASES” (priority 2009, published 2012)

Target: Cdk9/cyclinT1 (Homo sapiens, UniProt P50750)
Assay: Cdk9/cyclinT1 kinase assay (IMAP or Alpha Screen protocol)

Chain of Cdk9/cyclinT1 (P50750 whole entry): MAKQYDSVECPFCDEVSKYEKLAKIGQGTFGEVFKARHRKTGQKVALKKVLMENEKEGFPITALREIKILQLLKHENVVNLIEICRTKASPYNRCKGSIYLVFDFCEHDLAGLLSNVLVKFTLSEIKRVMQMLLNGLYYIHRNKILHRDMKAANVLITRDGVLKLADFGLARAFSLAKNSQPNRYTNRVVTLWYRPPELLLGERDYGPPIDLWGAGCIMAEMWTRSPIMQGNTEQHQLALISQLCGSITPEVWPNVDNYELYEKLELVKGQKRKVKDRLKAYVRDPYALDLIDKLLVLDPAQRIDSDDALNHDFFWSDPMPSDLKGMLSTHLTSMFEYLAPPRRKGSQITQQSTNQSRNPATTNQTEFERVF
Chain of Cdk9/cyclinT1 (O60563 whole entry partner): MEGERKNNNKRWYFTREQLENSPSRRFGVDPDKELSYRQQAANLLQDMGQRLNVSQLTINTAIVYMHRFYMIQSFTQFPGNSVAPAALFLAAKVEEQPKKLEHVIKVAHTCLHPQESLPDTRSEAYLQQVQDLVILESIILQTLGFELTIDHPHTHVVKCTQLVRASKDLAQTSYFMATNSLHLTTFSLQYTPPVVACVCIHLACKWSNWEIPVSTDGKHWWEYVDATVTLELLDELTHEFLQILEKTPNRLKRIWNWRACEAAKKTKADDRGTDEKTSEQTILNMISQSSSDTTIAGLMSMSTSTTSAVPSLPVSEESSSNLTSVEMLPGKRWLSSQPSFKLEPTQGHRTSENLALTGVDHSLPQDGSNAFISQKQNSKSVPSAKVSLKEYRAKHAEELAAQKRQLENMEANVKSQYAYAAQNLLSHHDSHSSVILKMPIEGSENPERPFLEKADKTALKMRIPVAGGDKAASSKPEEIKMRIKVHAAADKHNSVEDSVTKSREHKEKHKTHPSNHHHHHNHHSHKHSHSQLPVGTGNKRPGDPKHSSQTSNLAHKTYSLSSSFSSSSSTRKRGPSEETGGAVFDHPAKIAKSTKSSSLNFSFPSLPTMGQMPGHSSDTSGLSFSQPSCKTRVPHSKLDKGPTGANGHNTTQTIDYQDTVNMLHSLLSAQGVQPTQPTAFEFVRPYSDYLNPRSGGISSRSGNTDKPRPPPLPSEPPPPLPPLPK

Compound | IC50 [µM]
COC(=O)N[C@H]1CC[C@@H](C(=O)Nc2cc(-c3cncc(NCC4CCOCC4)n3)c(Cl)cn2)C1 [Example 54, [(1S,3R)-3-(5-Chloro-4-{6-[(tetrahydro-pyran-4-ylmethyl)-amino]-pyrazin-2-yl}-pyridin-2-ylcarbamoyl)-cyclopentyl]-carbamic acid methyl ester] | < 0.008
O=C(Nc1cc(-c2cncc(NCC3CCOCC3)n2)c(Cl)cn1)C1CCNCC1 [Example 22, Piperidine-4-carboxylic acid (5-chloro-4-{6-[(tetrahydro-pyran-4-ylmethyl)-amino]-pyrazin-2-yl}-pyridin-2-yl)-amide] | 0.008
O=C(Nc1cc(-c2cncc(NCc3cncc(F)c3)n2)c(Cl)cn1)[C@@H]1CCCNC1 [Example 16, (R)-Piperidine-3-carboxylic acid (5-chloro-4-{6-[(5-fluoro-pyridin-3-ylmethyl)-amino]-pyrazin-2-yl}-pyridin-2-yl)-amide] | < 0.008
CC(C)S(=O)(=O)N1CCC[C@H](C(=O)Nc2cc(-c3cncc(NCC4CCOCC4)n3)c(Cl)cn2)C1 [Example 56, (S)-1-(Propane-2-sulfonyl)-piperidine-3-carboxylic acid (5-chloro-4-{6-[(tetrahydro-pyran-4-ylmethyl)-amino]-pyrazin-2-yl}-pyridin-2-yl)-amide] | < 0.008
CC(C)(C)OC(=O)N1CCC[C@@H](C(=O)Nc2cc(-c3cncc(NCC4CCOCC4)n3)c(Cl)cn2)C1 [Example 2, (R)-3-(5-Chloro-4-{6-[(tetrahydro-pyran-4-ylmethyl)-amino]-pyrazin-2-yl}-pyridin-2-ylcarbamoyl)-piperidine-1-carboxylic acid tert-butyl ester] | 0.016
C[C@H](O)CNc1cncc(-c2cc(NC(=O)[C@@H]3CCCNC3)ncc2Cl)n1 [Example 29, (R)-Piperidine-3-carboxylic acid {5-chloro-4-[6-((S)-2-hydroxy-propylamino)-pyrazin-2-yl]-pyridin-2-yl}-amide] | 0.037
O=C(Nc1cc(-c2cncc(NCc3cccnc3)n2)c(Cl)cn1)[C@@H]1CCCNC1 [Example 25, (R)-Piperidine-3-carboxylic acid (5-chloro-4-{6-[(pyridin-3-ylmethyl)-amino]-pyrazin-2-yl}-pyridin-2-yl)-amide] | 0.012
O=C(Nc1cc(-c2cncc(NCC3CCCCO3)n2)c(Cl)cn1)[C@@H]1CCCNC1 (stereo partly drawn) [Example 34, (R)-Piperidine-3-carboxylic acid (5-chloro-4-{6-[(tetrahydro-pyran-2-ylmethyl)-amino]-pyrazin-2-yl}-pyridin-2-yl)-amide] | 0.011
O=C(Nc1cc(-c2cncc(NCC3CCOCC3)n2)c(Cl)cn1)[C@@H]1CCCNC1 [Example 9, (R)-Piperidine-3-carboxylic acid (5-chloro-4-{6-[(tetrahydro-pyran-4-ylmethyl)-amino]-pyrazin-2-yl}-pyridin-2-yl)-amide] | < 0.008
N[C@@H]1CC[C@@H](C(=O)Nc2cc(-c3cncc(NCC4CCOCC4)n3)c(Cl)cn2)C1 [Example 44, (1R,3R)-3-Amino-cyclopentanecarboxylic acid (5-chloro-4-{6-[(tetrahydro-pyran-4-ylmethyl)-amino]-pyrazin-2-yl}-pyridin-2-yl)-amide] | < 0.008
CC(C)S(=O)(=O)N1CCC[C@H](C(=O)Nc2cc(-c3cncc(NCC4CCOCC4)n3)c(C(F)(F)F)cn2)C1 [Example 67, (S)-1-(Propane-2-sulfonyl)-piperidine-3-carboxylic acid (4-{6-[(tetrahydro-pyran-4-ylmethyl)-amino]-pyrazin-2-yl}-5-trifluoromethyl-pyridin-2-yl)-amide] | 0.133
CS(=O)(=O)N1CCC[C@H](C(=O)Nc2cc(-c3cncc(NCC4CCOCC4)n3)c(C(F)(F)F)cn2)C1 [Example 65, (S)-1-Methanesulfonyl-piperidine-3-carboxylic acid (4-{6-[(tetrahydro-pyran-4-ylmethyl)-amino]-pyrazin-2-yl}-5-trifluoromethyl-pyridin-2-yl)-amide] | 0.103

The next lines start with the values.

IC50 [µM] | Compound
< 0.008 | O=C(Nc1cc(-c2cncc(NCc3ccc(F)cc3)n2)c(Cl)cn1)[C@@H]1CCCNC1 [Example 20, (R)-Piperidine-3-carboxylic acid {5-chloro-4-[6-(4-fluoro-benzylamino)-pyrazin-2-yl]-pyridin-2-yl}-amide]
< 0.008 | O=C(Nc1cc(-c2cncc(NCC3CCOCC3)n2)c(Cl)cn1)C1CCOCC1 [Example 15, Tetrahydro-pyran-4-carboxylic acid (5-chloro-4-{6-[(tetrahydro-pyran-4-ylmethyl)-amino]-pyrazin-2-yl}-pyridin-2-yl)-amide]
0.124 | COCC(=O)Nc1cc(-c2cncc(NCC3CCOCC3)n2)c(Cl)cn1 [Example 10, N-(5-Chloro-4-{6-[(tetrahydro-pyran-4-ylmethyl)-amino]-pyrazin-2-yl}-pyridin-2-yl)-2-methoxy-acetamide]
1.4 | O=C(Nc1cc(-c2cncc(Cl)n2)c(Cl)cn1)[C@@H]1CCCNC1 [Example 38, (R)-Piperidine-3-carboxylic acid [5-chloro-4-(6-chloro-pyrazin-2-yl)-pyridin-2-yl]-amide]
< 0.008 | COC(=O)N1CCC[C@H](C(=O)Nc2cc(-c3cncc(NCC4CCOCC4)n3)c(Cl)cn2)C1 [Example 49, (S)-3-(5-Chloro-4-{6-[(tetrahydro-pyran-4-ylmethyl)-amino]-pyrazin-2-yl}-pyridin-2-ylcarbamoyl)-piperidine-1-carboxylic acid methyl ester]
1.01 | O=C(Nc1cc(-c2cncc(NCC3CCOCC3)n2)c(C(F)(F)F)cn1)C1CCOCC1 [Example 59, Tetrahydro-pyran-4-carboxylic acid (4-{6-[(tetrahydro-pyran-4-ylmethyl)-amino]-pyrazin-2-yl}-5-trifluoromethyl-pyridin-2-yl)-amide]
0.268 | CC(=O)N1CCC[C@@H](C(=O)Nc2cc(-c3cncc(NCC4CCOCC4)n3)c(Cl)cn2)C1 [Example 5, (R)-1-Acetyl-piperidine-3-carboxylic acid (5-chloro-4-{6-[(tetrahydro-pyran-4-ylmethyl)-amino]-pyrazin-2-yl}-pyridin-2-yl)-amide]
0.009 | O=C(Nc1cc(-c2cncc(NCC3CCOCC3)n2)c(Cl)cn1)C1CCCOC1 (centres unmarked) [Example 23, Tetrahydro-pyran-3-carboxylic acid (5-chloro-4-{6-[(tetrahydro-pyran-4-ylmethyl)-amino]-pyrazin-2-yl}-pyridin-2-yl)-amide]
< 0.008 | COC(=O)N[C@@H]1CC[C@H](C(=O)Nc2cc(-c3cncc(NCC4CCOCC4)n3)c(Cl)cn2)C1 [Example 53, [(1R,3S)-3-(5-Chloro-4-{6-[(tetrahydro-pyran-4-ylmethyl)-amino]-pyrazin-2-yl}-pyridin-2-ylcarbamoyl)-cyclopentyl]-carbamic acid methyl ester]
0.029 | CC(=O)Nc1cc(-c2cncc(NCC3CCOCC3)n2)c(Cl)cn1 [Example 11, N-(5-Chloro-4-{6-[(tetrahydro-pyran-4-ylmethyl)-amino]-pyrazin-2-yl}-pyridin-2-yl)-acetamide]
0.0128 | O=C(Nc1cc(-c2cncc(NCC3CCOCC3)n2)c(Cl)cn1)C1CNCCO1 (centres unmarked) [Example 21, Morpholine-2-carboxylic acid (5-chloro-4-{6-[(tetrahydro-pyran-4-ylmethyl)-amino]-pyrazin-2-yl}-pyridin-2-yl)-amide]
